Source: patent US20170268001A1, “RNAS WITH TUMOR RADIO/CHEMO-SENSITIZING AND IMMUNOMODULATORY PROPERTIES AND METHODS OF THEIR PREPARATION AND APPLICATION” (THE UNIVERSITY OF CHICAGO, priority 2016, published 2017)

Target: T1, RIG-I (Homo sapiens, UniProt O95786)
T1 construct: HEK293 cells overexpressing either the full length RIG-I; host or cells: HEK293; HCT116 also for the qRT-PCR validation
T1 sequence (O95786 1-925): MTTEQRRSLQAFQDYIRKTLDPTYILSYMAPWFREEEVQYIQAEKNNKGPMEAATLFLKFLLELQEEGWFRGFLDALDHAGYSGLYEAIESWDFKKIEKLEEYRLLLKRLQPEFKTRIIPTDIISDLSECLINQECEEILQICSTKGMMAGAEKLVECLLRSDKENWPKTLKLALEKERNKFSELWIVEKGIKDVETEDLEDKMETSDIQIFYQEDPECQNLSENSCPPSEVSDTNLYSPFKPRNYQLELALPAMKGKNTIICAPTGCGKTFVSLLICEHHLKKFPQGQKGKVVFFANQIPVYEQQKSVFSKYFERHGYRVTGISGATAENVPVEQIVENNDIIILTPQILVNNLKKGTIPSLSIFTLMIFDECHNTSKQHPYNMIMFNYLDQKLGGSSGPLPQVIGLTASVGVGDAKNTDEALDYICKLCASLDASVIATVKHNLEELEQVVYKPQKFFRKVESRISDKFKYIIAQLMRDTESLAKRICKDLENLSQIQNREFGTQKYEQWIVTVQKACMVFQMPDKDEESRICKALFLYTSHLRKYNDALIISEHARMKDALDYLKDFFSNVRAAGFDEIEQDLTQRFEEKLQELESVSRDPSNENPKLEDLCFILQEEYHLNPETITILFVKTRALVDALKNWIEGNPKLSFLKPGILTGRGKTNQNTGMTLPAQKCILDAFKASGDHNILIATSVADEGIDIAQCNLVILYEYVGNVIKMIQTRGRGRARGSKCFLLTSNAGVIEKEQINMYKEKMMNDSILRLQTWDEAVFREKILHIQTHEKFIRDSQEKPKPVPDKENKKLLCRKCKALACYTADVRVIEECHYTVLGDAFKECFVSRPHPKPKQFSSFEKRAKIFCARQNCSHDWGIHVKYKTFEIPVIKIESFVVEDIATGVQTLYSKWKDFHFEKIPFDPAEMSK
Assay: RNA sequencing of RNA bound to RIG-I (RIG-I pulldown) after IR
Assay type: binding
Description: Technically, identification of RNAs was performed as follows: […] Cambridge, Mass.). Twenty-four hours post-transfection, cells were either mock-irradiated or exposed to IR (6 Gy). […] Cell lysates were separated from cell debris by centrifugation at 12,000 rpm at 4° C. Protein concentration was measured by BCA kit. Anti-FLAG monoclonal antibody was added to the cell lysate at a 1:500 dilution, and incubated overnight at 4° C. Protein G sepharose beads were added to the lysates and incubated for at least 2 hours at 4° C. […] Proteinase K was added to the eluates and incubated at 50° C. for 45 minutes. Trizol reagent was then added to the solution, and RNA bound to RIG-I was purified following manufacturer's protocol. RNA quality was analyzed using an Agilent Bioanalyzer 2100 with Pico Series II cartridges. RNA yield was measured using the Qubit RNA Broad Range kit. For qRT-PCR validation experiments of RIG-I pulled down RNA, UV cross-linking (2 doses at 150 mJ/cm^2) was performed on HEK293 and HCT116 overexpressing RIG-I prior to cell lysis. The same protocol for pulldown and RNA purification experiments was performed as described above. We eluted total RNA and RNA bound to RIG-I from RIG-I over-expressing HEK293 cells 48 hours post IR (6 Gy). […] Libraries were sequenced on Illumina HiSeq2500 instrument to generate 50 bp pair-ended reads. Sequencing files in FastQ format were processed using AlienTrimmer (Criscuolo A and Brisse S, 2013) to remove adapter sequences and to trim low quality reads with Phred quality score <20. The preprocessed reads were aligned to the human reference genome (Ensembl GRCh38) using Spliced Transcripts Alignment to a Reference (STAR) software (Dobin et al., 2013). The featureCounts tool from Bioconductor package RSubread was used to summarize and quantify the abundances of genomic features of the mapped reads (Liao et al., 2013). Mapped reads were annotated using human GENCODE version 20 (Harrow et al., 2012) and were summarized to 35 gene/transcript and non-coding RNA biotypes annotated in GENCODE/Ensemble databases. RepEnrich program (Criscione et al., 2014) was used to identify and quantify the repetitive elements. The program uses Bowtie (Langmead et al., 2009) to align the reads to the human reference genome (Ensembl GRCh38) and human repetitive element pseudogenomes built upon […] annotation library hg38.fa.out.gz (available at […].org on the World Wide Web). The mapped reads were summarized by repetitive element subfamilies, families and classes (Tables 3, 4 and 5). […]

[1] = Top 50 RIG-I binding RNAs, RepeatMasker annotations, RIG-I pulldown vs total RNA, HEK293, 48 h post IR (6 Gy)

U2: snRNA, SEQ ID NO:21
log2FC (All mapped reads identified using RepeatMasker): 5.983
Mean log2FC (RepeatMasker annotations, mean of set 1 and set 2): 3.948
log2FC (set 1) [1]: 5.983
log2FC (set 2) [1]: 1.914
